Patent US20250304576A1 (Cancer Research Technology Limited, priority 2022, published 2025)

Columns and labels:
Recombinant IKKβ = biological target: T1, Recombinant IKKβ (Homo sapiens, UniProt O14920); assay: DELFIA IKKβ kinase assay (apparent Ki, Cheng-Prusoff); type: biochemical; details: non-italicised figure: DELFIA assay
T1 construct: purchased Millipore, Dundee, UK
T1 sequence (O14920 1-756): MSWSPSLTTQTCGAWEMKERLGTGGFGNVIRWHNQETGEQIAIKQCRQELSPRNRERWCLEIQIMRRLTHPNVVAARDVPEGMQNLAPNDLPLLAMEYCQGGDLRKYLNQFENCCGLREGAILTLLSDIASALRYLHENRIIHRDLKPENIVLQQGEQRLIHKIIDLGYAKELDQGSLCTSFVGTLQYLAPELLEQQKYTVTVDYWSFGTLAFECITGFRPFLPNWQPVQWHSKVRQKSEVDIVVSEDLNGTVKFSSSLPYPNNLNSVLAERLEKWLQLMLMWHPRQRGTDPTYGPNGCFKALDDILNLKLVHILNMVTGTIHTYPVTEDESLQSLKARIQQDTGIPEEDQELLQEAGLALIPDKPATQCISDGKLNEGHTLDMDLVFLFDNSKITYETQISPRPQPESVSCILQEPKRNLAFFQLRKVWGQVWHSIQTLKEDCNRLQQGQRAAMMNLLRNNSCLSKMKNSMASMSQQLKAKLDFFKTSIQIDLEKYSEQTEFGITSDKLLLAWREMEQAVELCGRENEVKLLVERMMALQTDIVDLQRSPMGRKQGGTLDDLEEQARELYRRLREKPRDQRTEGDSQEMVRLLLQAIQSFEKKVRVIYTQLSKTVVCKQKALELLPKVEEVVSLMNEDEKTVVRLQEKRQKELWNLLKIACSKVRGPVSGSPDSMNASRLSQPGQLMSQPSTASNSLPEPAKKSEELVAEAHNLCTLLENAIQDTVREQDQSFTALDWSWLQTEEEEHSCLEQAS
Protocol: (§1) IKKα and IKKβ inhibitory activity was determined using three different assays: a dissociation enhanced ligand fluorescent immunoassay (DELFIA) based on the protocol of HTScan™ IKKβ Kinase Assay (Cell Signaling Technology, USA); an Adapta IKKα assay (performed by Life Technologies); a Z′-LYTE™ IKKβ assay (performed by Life Technologies).
(§2) Recombinant IKKα or IKKβ, 37 nM, (Millipore, Dundee, UK) was incubated with IηB-α (Ser32) (New England Biolabs, Hitchin, UK) biotinylated peptide substrate (0.375 μM) and 40 μM ATP in assay buffer (40 mM Tris-HCl (pH 7.5), 20 mM MgCl2, EDTA 1 mM, DTT 2 mM and BSA 0.01 mg/ml) in a V-well 96-well plate in the presence and absence of test compound. The assay plate was incubated for 60 minutes at 30° C. after which the kinase reaction was quenched by the addition of 50 mM EDTA, pH8. The resulting mixture was transferred to a streptavidin coated 96-well plate (Perkin Elmer, Beaconsfield, UK) and incubated for 1 hour at 30° C. to immobilise the substrate peptide. After three washes with wash buffer (0.01 M phosphate buffered saline (PBS), 0.05% Tween −20, pH 7.4) a primary antibody against the phosphorylated substrate (phospho-IηB-a) (Ser32/36) (5A5) Mouse mAb (New England Biolabs, Hitchin, UK) (1:1000 dilution with 1% bovine serum albumin (BSA) in wash buffer) was added and incubated at 37° C. for 2 h.
(§3) After a further three washes, a secondary europiated antibody (Eu-N1 labelled anti-mouse IgG, (Perkin Elmer, Beaconsfield, UK) diluted 1:500 in 1% BSA/wash buffer) was added and incubated at 30° C. for 30 minutes. After a further five washes, DELFIA enhancement solution—(Perkin Elmer, Beaconsfield UK) was added and allowed to incubate for 10 min at room temperature, protected from light, to facilitate the chemifluorescent detection. The relative fluorescence units (RFU) signal were measured on a Wallac Victor 1420 multilabel counter (Perkin Elmer, Beaconsfield, UK), in time-resolved fluorescence mode. The counter was set at an excitation wavelength of 340 nm with a 400 μs delay before detecting emitted light at 615 nm. The apparent Ki of the […] was calculated for each compound using the Cheng-Prusoff Equation.
(§4) The IKKα and IKKβ figures quoted in non-italicised form are from the DELFIA assay described above.

Recombinant IKKα = biological target: T2, Recombinant IKKα (Homo sapiens, UniProt O15111); assay: DELFIA IKKα kinase assay (apparent Ki, Cheng-Prusoff); type: biochemical; details: non-italicised figure: DELFIA assay
T2 construct: purchased Millipore, Dundee, UK
T2 sequence (O15111 1-745): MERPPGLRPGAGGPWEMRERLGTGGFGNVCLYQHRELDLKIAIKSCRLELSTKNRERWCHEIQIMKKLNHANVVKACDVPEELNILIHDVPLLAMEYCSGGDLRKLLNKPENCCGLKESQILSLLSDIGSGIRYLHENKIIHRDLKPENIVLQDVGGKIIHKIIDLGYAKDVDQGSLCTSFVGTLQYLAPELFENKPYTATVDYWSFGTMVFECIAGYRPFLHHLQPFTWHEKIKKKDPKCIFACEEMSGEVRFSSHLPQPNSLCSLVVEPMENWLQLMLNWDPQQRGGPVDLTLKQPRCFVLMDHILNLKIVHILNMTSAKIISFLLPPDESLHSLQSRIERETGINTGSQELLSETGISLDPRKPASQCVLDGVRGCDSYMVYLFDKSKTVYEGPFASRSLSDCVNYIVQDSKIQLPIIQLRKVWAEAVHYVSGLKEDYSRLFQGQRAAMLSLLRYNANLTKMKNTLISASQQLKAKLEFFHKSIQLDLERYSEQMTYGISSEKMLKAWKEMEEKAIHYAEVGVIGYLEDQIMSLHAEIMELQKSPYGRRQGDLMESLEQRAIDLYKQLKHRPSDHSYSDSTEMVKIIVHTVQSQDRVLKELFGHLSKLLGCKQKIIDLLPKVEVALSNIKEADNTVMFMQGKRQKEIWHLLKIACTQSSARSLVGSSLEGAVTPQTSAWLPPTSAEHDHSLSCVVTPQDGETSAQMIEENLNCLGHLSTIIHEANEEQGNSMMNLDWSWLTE
Protocol: as §1, §2, §3, §4

| Structure (SMILES) | Ki (Recombinant IKKβ) | Ki (Recombinant IKKα) |
| --- | --- | --- |
| Nc1n[nH]c2ccc(-c3ccnc(NC(=O)NCc4ccccc4)c3)cc12 [Example 45, 1-(4-(3-Amino-1H-indazol-5-yl)pyridin-2-yl)-3-benzylurea] | 357 nM | 152 nM |
| Nc1n[nH]c2ccc(-c3ccnc(NC(=O)NCCc4ccccc4)c3)cc12 [Example 46, 1-(4-(3-Amino-1H-indazol-5-yl)pyridin-2-yl)-3-phenethylurea] | > 10000 nM | 571 nM |
| Nc1n[nH]c2ccc(-c3ccnc(NC(=O)NCc4ccccn4)c3)cc12 [Example 47, 1-(4-(3-Amino-1H-indazol-5-yl)pyridin-2-yl)-3-(pyridin-2-ylmethyl)urea] | 838 nM | 38 nM |
| Nc1n[nH]c2ccc(-c3ccnc(NC(=O)NCc4cccnc4)c3)cc12 [Example 48, 1-(4-(3-Amino-1H-indazol-5-yl)pyridin-2-yl)-3-(pyridin-3-ylmethyl)urea] | 840 nM | 76 nM |
| Nc1n[nH]c2ccc(-c3ccnc(NC(=O)NCc4ccncc4)c3)cc12 [Example 49, 1-(4-(3-Amino-1H-indazol-5-yl)pyridin-2-yl)-3-(pyridin-4-ylmethyl)urea] | 1840 nM | 304 nM |
| Nc1n[nH]c2ccc(-c3ccnc(NC(=O)Nc4ccccc4)c3)cc12 [Example 50, 1-(4-(3-Amino-1H-indazol-5-yl)pyridin-2-yl)-3-phenylurea] | 293 nM | 12 nM |
| Nc1n[nH]c2ccc(-c3ccnc(NC(=O)Nc4cccc(F)c4)c3)cc12 [Example 51, 1-(4-(3-Amino-1H-indazol-5-yl)pyridine-2-yl)-3-(3-fluorophenyl)urea] | 126 nM | 14 nM |
| Nc1n[nH]c2ccc(-c3ccnc(NC(=O)Nc4cccc(Cl)c4)c3)cc12 [Example 52, 1-(4-(3-Amino-1H-indazol-5-yl)pyridin-2-yl)-3-(3-chlorophenyl)urea] | 400 nM | 36 nM |
| CC(C)c1cccc(NC(=O)Nc2cc(-c3ccc4[nH]nc(N)c4c3)ccn2)c1 [Example 53] | 419 nM | 14 nM |
| Nc1n[nH]c2ccc(-c3ccnc(NC(=O)Nc4cccc(CO)c4)c3)cc12 [Example 54, 1-(4-(3-Amino-1H-indazol-5-yl)pyridin-2-yl)-3-(3-(hydroxymethyl)phenyl)urea] | 419 nM | 14 nM |
| NC(=O)c1cccc(NC(=O)Nc2cc(-c3ccc4[nH]nc(N)c4c3)ccn2)c1 [Example 55, 3-(3-(4-(3-Amino-1H-indazol-5-yl)pyridin-2-yl)ureido)benzamide] | 503 nM | 21 nM |
| Nc1n[nH]c2ccc(-c3ccnc(NC(=O)Nc4cccc(Oc5ccccc5)c4)c3)cc12 [Example 56, 1-(4-(3-Amino-1H-indazol-5-yl)pyridin-2-yl)-3-(3-phenoxyphenyl)urea] | 3500 nM | 237 nM |
| Nc1n[nH]c2ccc(-c3ccnc(NC(=O)Nc4cccc(OCc5ccccc5)c4)c3)cc12 [Example 57, 1-(4-(3-Amino-1H-indazol-5yl)pyridin-2-yl)-3-(3-(benzyloxy)phenyl)urea] | 4200 nM | 38 nM |
| Nc1n[nH]c2ccc(-c3ccnc(NC(=O)Nc4cccc(OCc5ccc(F)cc5)c4)c3)cc12 [Example 58, 1-(4-(3-Amino-1H-indazol-5-yl)pyridin2-yl)-3-(3-((4-fluorobenzyl)oxy)phenyl)urea] | 1970 nM | 80 nM |
| Nc1n[nH]c2ccc(-c3ccnc(NC(=O)Nc4cccc(OCc5cccc(F)c5)c4)c3)cc12 [Example 59, 1-(4-(3-Amino-1H-indazol-5-yl)pyridin-2-yl)-3-(3-((3-fIuorobenzyl)oxy)phenyl)urea] | 1780 nM | 93 nM |
| Nc1n[nH]c2ccc(-c3ccnc(NC(=O)Nc4cccc(OCc5ccccc5F)c4)c3)cc12 [Example 60, 1-(4-(3-Amino-1H-indazol-5-yl)pyridin-2-yl)-3-(3-((2-fluorobenzyl)oxy)phenyl)urea] | 2480 nM | 76 nM |
| Nc1n[nH]c2ccc(-c3ccnc(NC(=O)Nc4cccc(C(=O)Nc5ccccc5)c4)c3)cc12 [Example 61, 3-(3-(4-(3-Amino-1H-indazol-5-yl)pyridine-2-yl)ureido)-N-phenylbenzamide] | 419 nM | 171 nM |
| Nc1n[nH]c2ccc(-c3ccnc(NC(=O)Nc4ccc(F)cc4)c3)cc12 [Example 62, 1-(4-(3-Amino-1H-indazol-5-yl)pyridine-2-yl)-3-(4-fluorophenyl)urea] | 115 nM | 22 nM |
| Nc1n[nH]c2ccc(-c3ccnc(NC(=O)Nc4ccc(Cl)cc4)c3)cc12 [Example 63] | 1720 nM | 48 nM |
| CC(C)(C)c1ccc(NC(=O)Nc2cc(-c3ccc4[nH]nc(N)c4c3)ccn2)cc1 [Example 64, 1-(4-(3-Amino-1H-indazol-5-yl)pyridin-2-yl)-3-(4-(tert-butyl)phenyl)urea] | 2900 nM | 76 nM |
| CS(=O)(=O)c1ccc(NC(=O)Nc2cc(-c3ccc4[nH]nc(N)c4c3)ccn2)cc1 [Example 65, 1-(4-(3-Amino-1H-indazol-5-yl)pyridin-2-yl)-3-(4-(methylsulfonyl)phenyl)urea] | 419 nM | 27 nM |
| Cc1ccccc1NC(=O)Nc1cc(-c2ccc3[nH]nc(N)c3c2)ccn1 [Example 66, 1-(4-(3-Amino-1H-indazol-5-yl)pyridin-2-yl)-3-(o-tolyl)urea] | 1050 nM | 46 nM |
| CCc1ccccc1NC(=O)Nc1cc(-c2ccc3[nH]nc(N)c3c2)ccn1 [Example 67, 1-(4-(3-Amino-1H-indazol-5-yl)pyridin-2-yl)-3-(2-ethylphenyl)urea] | 4200 nM | 300 nM |
| CC(C)c1ccccc1NC(=O)Nc1cc(-c2ccc3[nH]nc(N)c3c2)ccn1 [Example 68, 1-(4-(3-Amino-1H-indazol-5-yl)pyridin-2-yl)-3-(2-isopropylphenyl)urea] | 1900 nM | 100 nM |
| Nc1n[nH]c2ccc(-c3ccnc(NC(=O)Nc4cccnc4)c3)cc12 [Example 69, 1-(4-(3-Amino-1H-indazol-5-yl)pyridin-2-yl)-3-(pyridin-3-yl)urea] | 1190 nM | 42 nM |
| Nc1ccc(C#Cc2c(-c3ccc4[nH]nc(N)c4c3)ccnc2N)cc1 [Example 76, 5-(2-Amino-3-((4-aminophenyl)ethynyl)pyridine-4-yl)-1H-indazol-3-amine] | 32 nM | 8 nM |
